In patent publication US20240109865A1, “INDAZOLE COMPOUNDS AS KINASE INHIBITORS” (TYRA BIOSCIENCES, INC., priority 2020, published 2024):

Columns and labels:
Assay in all cases: Kinase assay, binding constants (Kd), kinase-tagged T7 phage, qPCR
FGFR3 (V555M) = FGFR3 (V555M) (Homo sapiens (Human), UniProt P22607, V555M); details: V555M mutant
Method in brief: (§1)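 Competition binding: T7 phage-tagged kinase + biotin-ligand beads + compound (11 pts, 3-fold, 0.9% DMSO). Elution 30 min RT with free ligand; qPCR quantitation. Kd via Hill fit, slope −1.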

FGFR2 = FGFR2 (Homo sapiens (Human), UniProt P21802)
Method in brief: as §1

FGFR4 = FGFR4 (Homo sapiens (Human), UniProt P22455)
Method in brief: as §1

FGFR1 = FGFR1 (Homo sapiens (Human), UniProt P11362)
Method in brief: as §1

FGFR3 = FGFR3 (Homo sapiens (Human), UniProt P22607)
Method in brief: as §1

FGFR3 (V555M), sequence (P22607 23-806 V555M): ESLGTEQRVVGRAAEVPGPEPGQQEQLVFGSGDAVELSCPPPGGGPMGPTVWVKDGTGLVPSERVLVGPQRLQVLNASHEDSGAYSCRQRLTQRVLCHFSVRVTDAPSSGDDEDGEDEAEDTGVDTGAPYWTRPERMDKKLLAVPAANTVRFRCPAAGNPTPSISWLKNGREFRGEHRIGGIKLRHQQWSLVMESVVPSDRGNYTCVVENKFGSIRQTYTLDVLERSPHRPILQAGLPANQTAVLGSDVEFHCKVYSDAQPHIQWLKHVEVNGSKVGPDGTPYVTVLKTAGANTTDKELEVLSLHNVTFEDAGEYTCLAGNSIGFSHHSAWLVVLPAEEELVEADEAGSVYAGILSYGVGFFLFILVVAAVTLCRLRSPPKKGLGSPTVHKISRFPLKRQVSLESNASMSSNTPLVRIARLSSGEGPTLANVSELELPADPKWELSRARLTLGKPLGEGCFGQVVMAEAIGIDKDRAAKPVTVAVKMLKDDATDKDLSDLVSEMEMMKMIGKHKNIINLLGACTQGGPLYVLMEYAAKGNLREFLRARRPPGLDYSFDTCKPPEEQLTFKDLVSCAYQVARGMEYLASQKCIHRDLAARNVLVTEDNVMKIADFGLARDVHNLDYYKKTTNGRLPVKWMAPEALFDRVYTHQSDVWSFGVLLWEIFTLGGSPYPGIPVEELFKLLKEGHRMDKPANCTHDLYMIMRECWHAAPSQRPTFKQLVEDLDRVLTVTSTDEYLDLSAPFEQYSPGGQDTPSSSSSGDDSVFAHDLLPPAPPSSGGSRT
FGFR4, sequence (P22455 22-802): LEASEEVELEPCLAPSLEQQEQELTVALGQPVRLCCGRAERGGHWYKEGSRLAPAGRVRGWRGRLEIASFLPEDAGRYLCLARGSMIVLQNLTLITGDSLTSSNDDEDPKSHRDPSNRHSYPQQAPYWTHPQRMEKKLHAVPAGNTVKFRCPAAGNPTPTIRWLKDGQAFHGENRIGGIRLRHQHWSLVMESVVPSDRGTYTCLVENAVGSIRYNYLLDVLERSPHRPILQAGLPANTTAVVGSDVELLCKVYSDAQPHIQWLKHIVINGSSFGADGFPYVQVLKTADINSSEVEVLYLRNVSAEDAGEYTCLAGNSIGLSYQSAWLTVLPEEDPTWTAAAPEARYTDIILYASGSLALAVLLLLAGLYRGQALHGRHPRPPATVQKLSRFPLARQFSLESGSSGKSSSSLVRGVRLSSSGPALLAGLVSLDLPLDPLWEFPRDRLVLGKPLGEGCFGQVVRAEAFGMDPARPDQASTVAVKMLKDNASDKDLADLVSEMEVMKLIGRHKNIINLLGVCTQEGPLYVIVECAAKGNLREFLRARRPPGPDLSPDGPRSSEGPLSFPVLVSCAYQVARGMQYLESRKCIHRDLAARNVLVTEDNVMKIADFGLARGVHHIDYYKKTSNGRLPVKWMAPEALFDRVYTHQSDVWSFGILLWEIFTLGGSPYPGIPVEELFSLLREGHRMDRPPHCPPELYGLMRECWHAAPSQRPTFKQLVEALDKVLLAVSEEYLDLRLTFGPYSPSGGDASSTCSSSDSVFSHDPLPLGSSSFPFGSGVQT
FGFR2, sequence (P21802 22-821): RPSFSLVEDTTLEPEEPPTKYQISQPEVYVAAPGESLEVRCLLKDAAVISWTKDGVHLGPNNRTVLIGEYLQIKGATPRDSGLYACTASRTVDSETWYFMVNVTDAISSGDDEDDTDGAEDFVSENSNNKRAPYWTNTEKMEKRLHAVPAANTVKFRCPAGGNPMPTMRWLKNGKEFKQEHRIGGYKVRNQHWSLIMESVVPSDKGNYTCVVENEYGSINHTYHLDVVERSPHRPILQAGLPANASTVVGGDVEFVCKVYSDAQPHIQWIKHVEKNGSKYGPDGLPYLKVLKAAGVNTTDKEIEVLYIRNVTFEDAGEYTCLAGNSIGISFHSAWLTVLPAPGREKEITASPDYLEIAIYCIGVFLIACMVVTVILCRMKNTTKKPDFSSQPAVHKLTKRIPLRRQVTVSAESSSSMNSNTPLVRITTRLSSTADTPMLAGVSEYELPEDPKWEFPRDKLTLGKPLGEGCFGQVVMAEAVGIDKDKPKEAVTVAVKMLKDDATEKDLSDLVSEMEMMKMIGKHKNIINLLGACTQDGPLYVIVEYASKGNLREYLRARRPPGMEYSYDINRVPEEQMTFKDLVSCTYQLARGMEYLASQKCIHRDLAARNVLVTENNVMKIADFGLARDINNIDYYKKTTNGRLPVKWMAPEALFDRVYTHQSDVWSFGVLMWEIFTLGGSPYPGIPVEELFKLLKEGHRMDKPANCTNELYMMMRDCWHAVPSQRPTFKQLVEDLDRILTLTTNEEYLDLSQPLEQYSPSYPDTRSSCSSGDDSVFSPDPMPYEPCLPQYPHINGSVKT
FGFR1, sequence (P11362 22-822): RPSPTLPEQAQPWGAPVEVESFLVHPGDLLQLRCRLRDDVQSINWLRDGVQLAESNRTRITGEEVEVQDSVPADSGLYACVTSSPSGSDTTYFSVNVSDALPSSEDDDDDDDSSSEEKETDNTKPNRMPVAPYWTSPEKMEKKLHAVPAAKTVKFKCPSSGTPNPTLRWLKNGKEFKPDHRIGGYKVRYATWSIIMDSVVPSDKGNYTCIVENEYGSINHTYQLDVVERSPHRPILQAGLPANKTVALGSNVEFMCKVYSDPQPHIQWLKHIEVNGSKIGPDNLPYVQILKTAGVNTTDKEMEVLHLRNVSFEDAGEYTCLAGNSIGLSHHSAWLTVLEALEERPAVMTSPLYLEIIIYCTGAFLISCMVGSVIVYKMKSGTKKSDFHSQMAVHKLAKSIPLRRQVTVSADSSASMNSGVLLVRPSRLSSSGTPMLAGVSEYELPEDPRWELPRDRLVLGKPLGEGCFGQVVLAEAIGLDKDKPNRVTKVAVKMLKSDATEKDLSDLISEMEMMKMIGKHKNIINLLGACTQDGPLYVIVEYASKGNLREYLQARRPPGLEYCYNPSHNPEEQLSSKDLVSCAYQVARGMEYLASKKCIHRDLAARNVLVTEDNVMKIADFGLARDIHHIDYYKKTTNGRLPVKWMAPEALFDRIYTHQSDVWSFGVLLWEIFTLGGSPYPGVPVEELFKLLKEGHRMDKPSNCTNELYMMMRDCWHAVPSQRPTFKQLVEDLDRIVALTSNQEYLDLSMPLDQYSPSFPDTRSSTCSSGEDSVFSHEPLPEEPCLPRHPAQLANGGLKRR
FGFR3, sequence (P22607 23-806): as the sequence (P22607 23-806 V555M) above, with M533V counted along it

Row | Structure (SMILES) | Kd (FGFR3 (V555M)) [nM] | Kd (FGFR2) [nM] | Kd (FGFR4) [nM] | Kd (FGFR1) [nM] | Kd (FGFR3) [nM] | Kd (FGFR3 (V555M); given as a number) [nM]
1 | C[C@@H](Oc1cc2c(-c3cnc(N4CC5(C4)CN(S(C)(=O)=O)C5)c(F)c3)n[nH]c2cc1F)c1c(Cl)cnnc1Cl [Example 258, (R)-5-(1-(3,5-dichloropyridazin-4-yl)ethoxy)-6-fluoro-3-(5-fluoro-6-(6-(methylsulfonyl)-2,6-diazaspiro[3.3]heptan-2-yl)pyridin-3-yl)-1H-indazole] | 1 to 20 | 1 to 20 | 1 to 20 | 1 to 20 | 1 to 20 | 
2 | Cc1cc2[nH]nc(-c3cnc(N4CC5(C4)CN(S(C)(=O)=O)C5)c(F)c3)c2cc1O[C@H](C)c1c(Cl)cnnc1Cl [Example 259, (R)-5-(1-(3,5-dichloropyridazin-4-yl)ethoxy)-3-(5-fluoro-6-(6-(methylsulfonyl)-2,6-diazaspiro[3.3]heptan-2-yl)pyridin-3-yl)-6-methyl-1H-indazole] | 1 to 20 | 1 to 20 | 1 to 20 | 1 to 20 | 1 to 20 | 
3 | C[C@@H](Oc1cc2c(-c3ccc(N4CC5(C4)CN(S(C)(=O)=O)C5)nc3)n[nH]c2cc1Cl)c1c(Cl)cncc1Cl [Example 260, (R)-6-chloro-5-(1-(3,5-dichloropyridin-4-yl)ethoxy)-3-(6-(6-(methylsulfonyl)-2,6-diazaspiro[3.3]heptan-2-yl)pyridin-3-yl)-1H-indazole] | 1 to 20 | 1 to 20 | 1 to 20 | 1 to 20 | 1 to 20 | 
4 | COc1cc2[nH]nc(-c3ccc(N4CC5(C4)CN(S(C)(=O)=O)C5)nc3)c2cc1O[C@H](C)c1c(Cl)cnnc1Cl [Example 261, (R)-5-(1-(3,5-dichloropyridazin-4-yl)ethoxy)-6-methoxy-3-(6-(6-(methylsulfonyl)-2,6-diazaspiro[3.3]heptan-2-yl)pyridin-3-yl)-1H-indazole] | 1 to 20 | 1 to 20 | 1 to 20 | 1 to 20 | 1 to 20 | 
5 | C[C@@H](Oc1cc2c(-c3ccc(N4CC5(C4)CN(S(C)(=O)=O)C5)nc3)n[nH]c2cc1F)c1c(Cl)cnnc1Cl [Example 262, (R)-5-(1-(3,5-dichloropyridazin-4-yl)ethoxy)-6-fluoro-3-(6-(6-(methylsulfonyl)-2,6-diazaspiro[3.3]heptan-2-yl)pyridin-3-yl)-1H-indazole] | 1 to 20 | 1 to 20 | 1 to 20 | 1 to 20 | 1 to 20 | 
6 | C[C@@H](Oc1ccc2[nH]nc(-c3cnc(N4CC(C)(N)C4)c(F)c3)c2c1)c1c(Cl)cncc1Cl [Example 265, (R)-1-(5-(5-(1-(3,5-dichloropyridin-4-yl)ethoxy)-1H-indazol-3-yl)-3-fluoropyridin-2-yl)-3-methylazetidin-3-amine] | 1 to 20 | 1 to 20 | 1 to 20 | 1 to 20 | 1 to 20 | 
7 | COc1cc2[nH]nc(-c3cnc(N4CC[C@H]4C)c(F)c3)c2cc1O[C@H](C)c1c(Cl)cncc1Cl [Example 267, 5-((R)-1-(3,5-dichloropyridin-4-yl)ethoxy)-3-(5-fluoro-6-((R)-2-methylazetidin-1-yl)pyridin-3-yl)-6-methoxy-1H-indazole] | 1 to 20 | 20 to 100 | 1 to 20 | 20 to 100 | 1 to 20 | 
8 | COc1cc2[nH]nc(-c3cnc(N4CCC4)c(F)c3)c2cc1O[C@H](C)c1c(Cl)cncc1Cl [Example 268, (R)-3-(6-(azetidin-1-yl)-5-fluoropyridin-3-yl)-5-(1-(3,5-dichloropyridin-4-yl)ethoxy)-6-methoxy-1H-indazole] | 1 to 20 | 20 to 100 | 1 to 20 | 20 to 100 | 1 to 20 | 
9 | Cc1ncc(Cl)c([C@@H](C)Oc2cc3c(-c4cnc(N5CC6(C5)CN(S(C)(=O)=O)C6)c(F)c4)n[nH]c3cc2F)c1Cl [Example 269, 5-[(1R)-1-(3,5-dichloro-2-methyl-4-pyridyl)ethoxy]-6-fluoro-3-[5-fluoro-6-(2-methylsulfonyl-2,6-diazaspiro[3.3]heptan-6-yl)-3-pyridyl]-1H-indazole] | 1 to 20 | 20 to 100 | 1 to 20 | 20 to 100 | 1 to 20 | 
10 | Cc1ncc(Cl)c([C@@H](C)Oc2cc3c(-c4cnc(N5CC6(C5)CN(S(C)(=O)=O)C6)c(F)c4)n[nH]c3cc2Cl)c1Cl [Example 270, 6-chloro-5-[(1R)-1-(3,5-dichloro-2-methyl-4-pyridyl)ethoxy]-3-[5-fluoro-6-(2-methylsulfonyl-2,6-diazaspiro[3.3]heptan-6-yl)-3-pyridyl]-1H-indazole] | 1 to 20 | 20 to 100 | 1 to 20 | 20 to 100 | 1 to 20 | 
11 | COc1cc2[nH]nc(-c3cnc(N4CC[C@@H]4C)c(F)c3)c2cc1O[C@H](C)c1c(Cl)cncc1Cl [Example 271, 5-((R)-1-(3,5-dichloropyridin-4-yl)ethoxy)-3-(5-fluoro-6-((S)-2-methylazetidin-1-yl)pyridin-3-yl)-6-methoxy-1H-indazole] | 1 to 20 | 20 to 100 | 1 to 20 | 20 to 100 | 1 to 20 | 
12 | C[C@@H]1CCN1c1ncc(-c2n[nH]c3cc(Cl)c(O[C@H](C)c4c(Cl)cncc4Cl)cc23)cc1F [Example 272, 6-chloro-5-((R)-1-(3,5-dichloropyridin-4-yl)ethoxy)-3-(5-fluoro-6-((R)-2-methylazetidin-1-yl)pyridin-3-yl)-1H-indazole] | 20 to 100 | > 300 | 20 to 100 | > 300 | 20 to 100 | 
13 | Cc1cc2[nH]nc(-c3cnc(N4CC5(C4)CN(S(C)(=O)=O)C5)c(F)c3)c2cc1O[C@H](C)c1c(Cl)cnc(C)c1Cl [Example 273, 5-[(1R)-1-(3,5-dichloro-2-methyl-4-pyridyl)ethoxy]-3-[5-fluoro-6-(2-methylsulfonyl-2,6-diazaspiro[3.3]heptan-6-yl)-3-pyridyl]-6-methyl-1H-indazole] |  | 20 to 100 | 1 to 20 | 20 to 100 | 1 to 20 | 1.8
14 | CNC1(C)CN(c2ncc(-c3n[nH]c4cc(Cl)c(O[C@H](C)c5c(Cl)cnc(C)c5Cl)cc34)cc2F)C1 [Example 275, 1-[5-[6-chloro-5-[(1R)-1-(3,5-dichloro-2-methyl-4-pyridyl)ethoxy]-1H-indazol-3-yl]-3-fluoro-2-pyridyl]-N,3-dimethyl-azetidin-3-amine] | 1 to 20 | 20 to 100 | 1 to 20 | 1 to 20 | 1 to 20 | 

The next lines start with the values.

Row | Kd (FGFR3 (V555M)) [nM] | Kd (FGFR2) [nM] | Kd (FGFR4) [nM] | Kd (FGFR1) [nM] | Kd (FGFR3) [nM] | Kd (FGFR3 (V555M); given as a number) [nM] | Structure (SMILES)
15 | 1 to 20 | 1 to 20 | 1 to 20 | 1 to 20 | 1 to 20 |  | C[C@@H](Oc1cc2c(-c3cnc(N4CC5(C4)CN(S(C)(=O)=O)C5)c(F)c3)n[nH]c2cc1F)c1c(Cl)cncc1Cl [Example 256, 5-[(1R)-1-(3,5-dichloro-4-pyridyl)ethoxy]-6-fluoro-3-[5-fluoro-6-(2-methylsulfonyl-2,6-diazaspiro[3.3]heptan-6-yl)-3-pyridyl]-1H-indazole]
16 | 1 to 20 | 1 to 20 | 1 to 20 | 1 to 20 | 1 to 20 |  | C[C@@H](Oc1ccc2[nH]nc(-c3ccc(N4CC(C)(N)C4)nc3)c2c1)c1c(Cl)cncc1Cl [Example 257, (R)-1-(5-(5-(1-(3,5-dichloropyridin-4-yl)ethoxy)-1H-indazol-3-yl)pyridin-2-yl)-3-methylazetidin-3-amine]
17 | 1 to 20 | 1 to 20 | 1 to 20 | 1 to 20 | 1 to 20 |  | C[C@@H](Oc1cc2c(-c3ccc(N4CC5(C4)CN(S(C)(=O)=O)C5)nc3)n[nH]c2cc1Cl)c1c(Cl)cnnc1Cl [Example 263, (R)-6-chloro-5-(1-(3,5-dichloropyridazin-4-yl)ethoxy)-3-(6-(6-(methylsulfonyl)-2,6-diazaspiro[3.3]heptan-2-yl)pyridin-3-yl)-1H-indazole]
18 | 1 to 20 | 1 to 20 | 1 to 20 | 1 to 20 | 1 to 20 |  | C[C@@H](Oc1cc2c(-c3cnc(N4CC5(C4)CN(S(C)(=O)=O)C5)c(F)c3)n[nH]c2cc1Cl)c1c(Cl)cnnc1Cl [Example 264, (R)-6-chloro-5-(1-(3,5-dichloropyridazin-4-yl)ethoxy)-3-(5-fluoro-6-(6-(methylsulfonyl)-2,6-diazaspiro[3.3]heptan-2-yl)pyridin-3-yl)-1H-indazole]
19 | 1 to 20 | 1 to 20 | 1 to 20 | 1 to 20 | 1 to 20 |  | Cc1ncc(Cl)c([C@@H](C)Oc2cc3c(-c4ccc(N5CC6(C5)CN(S(C)(=O)=O)C6)nc4)n[nH]c3cc2F)c1Cl [Example 266, 5-[(1R)-1-(3,5-dichloro-2-methyl-4-pyridyl)ethoxy]-6-fluoro-3-[6-(2-methylsulfonyl-2,6-diazaspiro[3.3]heptan-6-yl)-3-pyridyl]-1H-indazole]
20 | 1 to 20 | 100 to 300 | 20 to 100 | 100 to 300 | 20 to 100 |  | Cc1ncc(Cl)c([C@@H](C)Oc2cc3c(-c4cnc(N5CCC5)c(F)c4)n[nH]c3cc2Cl)c1Cl [Example 274, 3-[6-(azetidin-1-yl)-5-fluoro-3-pyridyl]-6-chloro-5-[(1R)-1-(3,5-dichloro-2-methyl-4-pyridyl)ethoxy]-1H-indazole]
21 | > 300 | > 300 | > 300 | > 300 | > 300 |  | C[C@H](Oc1ccc2[nH]nc(-c3cnc(N4CCC4)c(C#N)c3)c2c1)c1c(Cl)cnc(F)c1Cl [Example 283, (S)-2-(azetidin-1-yl)-5-(5-(1-(3,5-dichloro-2-fluoropyridin-4-yl)ethoxy)-1H-indazol-3-yl)nicotinonitrile]
